IC50 data for 35 compounds are collected here from patent publication US20250179059A1 (The Regents of the University of California, priority 2021, published 2025).

pIC50: −log10 of the molar value.

This experiment has as its target T1, human BRD4 bromodomain II (Homo sapiens, UniProt O60885).
T1 construct: human BRD4 bromodomain II [based on Genbank NM_058243, residues 349-460]; host or cells: E. coli
Kind of experiment: Bromodomain binding assay (AlphaScreen), BRD4 BDII. Particulars: AlphaScreen assay, Table C2; read-out: BRD4 BDII IC50. Summed up: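 E. coli-expressed N-terminal His6-tagged human BRD4 BDII (residues 349-460) or BDI (residues 44-170) was preincubated 30 min at room temperature with compound (10-point, 3-fold) in pH 7.5 HEPES buffer, 1% DMSO. Displacement of biotinylated tetra-acetylated H4 1-21 peptide was read by AlphaScreen, and IC50 came from curve fitting.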
A general note: In Alpha technology, singlet oxygen from a donor bead excites a nearby acceptor bead.
Take `CC(=O)Nc1ccc(-c2cccc(-c3ccc4ncncc4c3)c2O)cc1F` [Example 142, N-(3-fluoro-2′-hydroxy-3′-(quinazolin-6-yl)-[1,1′-biphenyl]-4-yl)acetamide]: the pIC50 – broadly, the negative decadic logarithm of the IC50, by convention in mol/L – was 7.00 to 8.00.

For the compound `CC(=O)Nc1ccc(-c2cccc(-c3cc(N4CCN(S(C)(=O)=O)CC4)no3)c2O)cc1` [Example 143, N-(2′-hydroxy-3′-(3-(4-(methylsulfonyl)piperazin-1-yl)isoxazol-5-yl)-[1,1′-biphenyl]-4-yl)acetamide], the pIC50 was below 7.00.

For `CC(=O)Nc1ccc(-c2cccc(-c3ccc4c(c3)OCCN4C)c2O)cc1F` [Example 144, N-(3-fluoro-2′-hydroxy-3′-(4-methyl-3,4-dihydro-2H-benzo[b][1,4]oxazin-7-yl)-[1,1′-biphenyl]-4-yl)acetamide], the pIC50 is below 7.00.

Consider `CC(=O)Nc1ccc(-c2cccc(-c3ccc4cnccc4c3)c2O)cc1F` [Example 145, N-(3-fluoro-2′-hydroxy-3′-(isoquinolin-6-yl)-[1,1′-biphenyl]-4-yl)acetamide], for which the pIC50 was 7.00 to 8.00.

In the case of `COc1cc(F)cc(-c2cccc(-c3ccc(NC(C)=O)c(F)c3)c2O)c1` [Example 146, N-(3,3″-difluoro-2′-hydroxy-5″-methoxy-[1,1′:3′,1″-terphenyl]-4-yl)acetamide], the pIC50 was below 7.00.

On to `COc1ccc(C)c(-c2cccc(-c3ccc(NC(C)=O)c(F)c3)c2O)c1` [Example 147, N-(3-fluoro-2′-hydroxy-5″-methoxy-2″-methyl-[1,1′:3′,1″-terphenyl]-4-yl)acetamide], for which the pIC50 is below 7.00.

For the compound `CC(=O)Nc1ccc(-c2cccc(-c3nnc(N4CCNCC4)[nH]3)c2O)cc1F` [Example 148, N-(3-fluoro-2′-hydroxy-3′-(5-(piperazin-1-yl)-4H-1,2,4-triazol-3-yl)-[1,1′-biphenyl]-4-yl)acetamide], the pIC50 is below 7.00.

For `CNC(=O)Nc1ccc(-c2cccc(-c3cc(N4CCNCC4)no3)c2O)cc1` [Example 149, 1-(2′-hydroxy-3′-(3-(piperazin-1-yl)isoxazol-5-yl)-[1,1′-biphenyl]-4-yl)-3-methylurea], the negative-log IC50 (pIC50) is below 7.00.

As for `CC(=O)Nc1ccc(-c2cccc(-c3cc(N4CCN(C)CC4)no3)c2O)cc1F` [Example 150, N-(3-fluoro-2′-hydroxy-3′-(3-(4-methylpiperazin-1-yl)isoxazol-5-yl)-[1,1′-biphenyl]-4-yl)acetamide], the pIC50 is 7.00 to 8.00.

In the case of `CCN1CCN(c2cc(-c3cccc(-c4ccc(NC(C)=O)c(F)c4)c3O)on2)CC1` [Example 151, N-(3′-(3-(4-ethylpiperazin-1-yl)isoxazol-5-yl)-3-fluoro-2′-hydroxy-[1,1′-biphenyl]-4-yl)acetamide], the pIC50 is 7.00 to 8.00.

Consider `CC(=O)Nc1ccc(-c2cccc(-c3cc(N4CCN(C(C)C)CC4)no3)c2O)cc1F` [Example 152, N-(3-fluoro-2′-hydroxy-3′-(3-(4-isopropylpiperazin-1-yl)isoxazol-5-yl)-[1,1′-biphenyl]-4-yl)acetamide 2,2,2-trifluoroacetate], for which the negative logarithm of the IC50 (pIC50) is 7.00 to 8.00.

Regarding `CC(=O)Nc1ccc(-c2cccc(-c3cc(N4CCN(C5COC5)CC4)no3)c2O)cc1F` [Example 153, N-(3-fluoro-2′-hydroxy-3′-(3-(4-(oxetan-3-yl)piperazin-1-yl)isoxazol-5-yl)-[1,1′-biphenyl]-4-yl)acetamide], the pIC50 is 7.00 to 8.00.

In the case of `CC(=O)Nc1c(Cl)cc(-c2cccc(-c3cc(N4CCNCC4)no3)c2O)cc1Cl` [Example 154, N-(3,5-dichloro-2′-hydroxy-3′-(3-(piperazin-1-yl)isoxazol-5-yl)-[1,1′-biphenyl]-4-yl)acetamide], the pIC50 is 7.00 to 8.00.

Take `CC(=O)Nc1ccc(-c2cccc(-c3ccc4c(c3)CNC(=O)N4)c2O)cc1F` [Example 155, N-(3-fluoro-2′-hydroxy-3′-(2-oxo-1,2,3,4-tetrahydroquinazolin-6-yl)-[1,1′-biphenyl]-4-yl)acetamide]: the pIC50 is 7.00 to 8.00.

Take `CC(=O)Nc1ccc(-c2cccc(-c3cc4ccccc4[nH]3)c2O)cc1F` [Example 156, N-(3-fluoro-2′-hydroxy-3′-(1H-indol-2-yl)-[1,1′-biphenyl]-4-yl)acetamide]: the pIC50 was below 7.00.

For `COc1cc(-c2cccc(-c3ccc(NC(C)=O)c(F)c3)c2O)ccc1F` [Example 157, N-(3,4″-difluoro-2′-hydroxy-3″-methoxy-[1,1′:3′,1″-terphenyl]-4-yl)acetamide], the negative-log IC50 (pIC50) is below 7.00.

Take `COc1ccc(F)c(-c2cccc(-c3ccc(NC(C)=O)c(F)c3)c2O)c1` [Example 158, N-(2″,3-difluoro-2′-hydroxy-5″-methoxy-[1,1′:3′,1″-terphenyl]-4-yl)acetamide]: the pIC50 is below 7.00.

As for `CC(=O)Nc1ccc(-c2cccc(-c3cccc(N4CCC(N)CC4)c3)c2O)cc1F` [Example 159, N-(3″-(4-aminopiperidin-1-yl)-3-fluoro-2′-hydroxy-[1,1′:3′,1″-terphenyl]-4-yl)acetamide 2,2,2-trifluoroacetate], the pIC50 is 7.00 to 8.00.

On to `CC(=O)Nc1ccc(-c2cccc(-c3cc(N4CCNCC4)n(C)n3)c2O)cc1F` [Example 160, N-(3-fluoro-2′-hydroxy-3′-(1-methyl-5-(piperazin-1-yl)-1H-pyrazol-3-yl)-[1,1′-biphenyl]-4-yl)acetamide], for which the pIC50 is below 7.00.

Take `CC(=O)Nc1ccc(-c2cccc(-c3cc(N4CCNCC4)[nH]n3)c2O)cc1F` [Example 162, N-(3-fluoro-2′-hydroxy-3′-(5-(piperazin-1-yl)-1H-pyrazol-3-yl)-[1,1′-biphenyl]-4-yl)acetamide ditrifluoroacetate]: the pIC50 is below 7.00.

On to `COc1cc(-c2cccc(-c3cc(Cl)c(N4CCCC4=O)c(Cl)c3)c2O)ccc1NC(C)=O` [Example 165, N-(3″,5″-dichloro-2′-hydroxy-3-methoxy-4″-(2-oxopyrrolidin-1-yl)-[1,1′:3′,1″-terphenyl]-4-yl)acetamide], for which the pIC50 is below 7.00.

Turning to `CC(=O)Nc1ccc(-c2cccc(-c3cccc(N4CCCCC4)c3)c2O)cc1F` [Example 166, N-(3-fluoro-2′-hydroxy-3″-(piperidin-1-yl)-[1,1′:3′,1″-terphenyl]-4-yl)acetamide], the pIC50 is below 7.00.

Regarding `CC(=O)Nc1c(F)cc(-c2cccc(-c3cccc(N4CCNCC4)c3)c2O)cc1OC1CCC1` [Example 167, N-(3-cyclobutoxy-5-fluoro-2′-hydroxy-3″-(piperazin-1-yl)-[1,1′:3′,1″-terphenyl]-4-yl)acetamide], the pIC50 was 8.00 to 9.00.

Turning to `CC(=O)Nc1ccc(-c2cccc(-c3cccc(N4CCNC[C@@H]4C)c3)c2O)cc1F` [Example 168, (S)-N-(3-fluoro-2′-hydroxy-3″-(2-methylpiperazin-1-yl)-[1,1′:3′,1″-terphenyl]-4-yl)acetamide], the pIC50 is 7.00 to 8.00.

Take `CC(=O)Nc1ccc(-c2cccc(-c3cccc(N4CCNC[C@H]4C)c3)c2O)cc1F` [Example 169, (R)-N-(3-fluoro-2′-hydroxy-3″-(2-methylpiperazin-1-yl)-[1,1′:3′,1″-terphenyl]-4-yl)acetamide]: the negative logarithm of the IC50 (pIC50) was 8.00 to 9.00.

As for `CC(=O)Nc1ccc(-c2cccc(-c3cccc(N4CC5CC4CN5)c3)c2O)cc1F` (centres unmarked) [Example 170, N-(3″-(2,5-diazabicyclo[2.2.1]heptan-2-yl)-3-fluoro-2′-hydroxy-[1,1:3′,1″-terphenyl]-4-yl)acetamide], the pIC50 was 7.00 to 8.00.

With `O=C1CCCN1c1c(Cl)cc(-c2cccc(-c3cc(N4CCNCC4)no3)c2O)cc1Cl` [Example 172, 1-(3,5-dichloro-2′-hydroxy-3′-(3-(piperazin-1-yl)isoxazol-5-yl)-[1,1′-biphenyl]-4-yl)pyrrolidin-2-one], the pIC50 was below 7.00.

As to `CC(=O)Nc1ccc(-c2cccc(-c3cccc(N4CC5CCC4CN5)c3)c2O)cc1F` (centres unmarked) [Example 174, N-(3″-(2,5-diazabicyclo[2.2.2]octan-2-yl)-3-fluoro-2′-hydroxy-[1,1′:3′,1″-terphenyl]-4-yl)acetamide], the pIC50 is 7.00 to 8.00.

`CC(=O)Nc1c(F)cc(-c2cccc(-c3cccc(N4CCNCC4)c3)c2O)cc1OC1CC1` [Example 175, N-(3-cyclopropoxy-5-fluoro-2′-hydroxy-3″-(piperazin-1-yl)-[1,1′:3′,1″-terphenyl]-4-yl)acetamide]: the pIC50 is 7.00 to 8.00.

Turning to `CC(=O)Nc1ccc(-c2cccc(-c3cccc(N4C[C@H]5CC[C@@H](C4)N5)c3)c2O)cc1F` [Example 176, N-(3″-((1R,5S)-3,8-diazabicyclo[3.2.1]octan-3-yl)-3-fluoro-2′-hydroxy-[1,1′:3′,1″-terphenyl]-4-yl)acetamide], the pIC50 was 7.00 to 8.00.

Turning to `CC(=O)Nc1ccc(-c2cccc(-c3cccc(N4CCC(N)C4)c3)c2O)cc1F` (centres unmarked) [Example 177, N-(3″-(3-aminopyrrolidin-1-yl)-3-fluoro-2′-hydroxy-[1,1′:3′,1″-terphenyl]-4-yl)acetamide], the pIC50 is 7.00 to 8.00.

For `CC(=O)Nc1ccc(-c2cccc(-c3cc(F)cc(N4CCNCC4)c3)c2O)cc1F` [Example 178, N-(3,3″-difluoro-2′-hydroxy-5″-(piperazin-1-yl)-[1,1′:3′,1″-terphenyl]-4-yl)acetamide], the pIC50 was 7.00 to 8.00.

With `CC(=O)Nc1ccc(-c2cccc(-c3cccc(N4CCN[C@@H](C)C4)c3)c2O)cc1F` [Example 179, (S)-N-(3-fluoro-2′-hydroxy-3″-(3-methylpiperazin-1-yl)-[1,1′:3′,1″-terphenyl]-4-yl)acetamide], the pIC50 was 7.00 to 8.00.

For `CC(=O)Nc1ccc(-c2cccc(-c3cc(N4CCNCC4)ccc3C)c2O)cc1F` [Example 181, N-(3-fluoro-2′-hydroxy-2″-methyl-5″-(piperazin-1-yl)-[1,1′:3′,1″-terphenyl]-4-yl)acetamide], the pIC50 was below 7.00.

For the compound `CC(=O)Nc1ccc(-c2cccc(-c3cccc(N4C[C@@H]5CC[C@H]4CN5)c3)c2O)cc1F` [Example 183, N-(3″-((1S,4S)-2,5-diazabicyclo[2.2.2]octan-2-yl)-3-fluoro-2′-hydroxy-[1,1′:3′,1″-terphenyl]-4-yl)acetamide], the pIC50 is 7.00 to 8.00.
